Earlier results on 32 compounds are cited in patent EP2484728B1, “Ink composition, ink set, and image forming method” (Fujifilm Corporation, priority 2011, dated 2012).

The conditions of this series: 25°C; Polymer Handbook values, otherwise calculated by the Fedors method.
For `CCCCC(O)CO` (centres unmarked) [1,2-Hexanediol], the SP value is reported as 24.1 (MPa)^1/2.

Turning to `OCCOCCO` [DEG, Diethylene glycol], the SP value entry is on record as “DEG (30.6) (MPa)^1/2”.

Regarding `CCCCOCCOCCO` [Diethylene glycol monobutyl ether], the SP value is on record as 21.5 (MPa)^1/2. On to `COCCOCCO` [Diethylene glycol monomethyl ether], for which the SP value was 22.4 (MPa)^1/2. As to `COC(C)COC(C)CO` (centres unmarked) [Dipropylene glycol monomethyl ether], the SP value is listed as 21.3 (MPa)^1/2.

In the case of `CC(O)COC(C)COC(C)COC(C)COC(C)COC(C)COC(C)CO` (centres unmarked) [Heptapropylene glycol], the SP value was 21.2 (MPa)^1/2. In the case of `CCOCC(C)O` (centres unmarked) [Propylene glycol monoethyl ether], the SP value is 22.3 (MPa)^1/2. For the compound `CCCCOCCOCCOCCO` [Triethylene glycol monobutyl ether], the SP value is on record as 21.1 (MPa)^1/2. Regarding `CCOCCOCCOCCO` [Triethylene glycol monoethyl ether], the SP value was 21.7 (MPa)^1/2. Regarding `COCCOCCOCCO` [Triethylene glycol monomethyl ether], the SP value is reported as 22.1 (MPa)^1/2. Turning to `COC(C)COC(C)COC(C)CO` (centres unmarked) [Tripropylene glycol monomethyl ether], the SP value was 20.4 (MPa)^1/2. As for `CC(O)COC(C)COC(C)CO` (centres unmarked) [Tripropylene glycol], the SP value is listed as 24.7 (MPa)^1/2.

For the compound `OCC(O)CO` [glycerin], the SP value entry was “glycerin (33.5) (MPa)^1/2”. For the compound “Decaoxyethylene heptaoxypropylene butyl ether”, the SP value is recorded as 18.8 (MPa)^1/2. With “Decaoxyethylene triacontaoxypropylene butyl ether”, the SP value is 18.7 (MPa)^1/2. “Dioxyethylene dioxypropylene butyl ether”: the SP value is recorded as 20.1 (MPa)^1/2. Consider “Dodecaoxyethylene dodecaoxypropylene butyl ether”, for which the SP value is reported as 18.8 (MPa)^1/2. Consider POE (20) diglyceryl ether, for which the SP value is listed as 22.4 (MPa)^1/2. Turning to POE (40) diglyceryl ether, the SP value was 21.0 (MPa)^1/2.

In the case of POP (3) glycerylether, the SP value is 26. 4 (MPa)^1/2. POP (4) diglyceryl ether: the SP value is on record as 26.1 (MPa)^1/2. Turning to POP (4) glyceryl ether, the SP value is given as 24.9 (MPa)^1/2. As for POP (5) glyceryl ether, the SP value was 23.9 (MPa)^1/2. With POP (6) glyceryl ether, the SP value is reported as 23. 2 (MPa)^1/2. As for POP (7) glyceryl ether, the SP value was 22.6 (MPa)^1/2. Turning to POP (8) glyceryl ether, the SP value is on record as 22.1 (MPa)^1/2. Regarding POP (9) diglyceryl ether, the SP value is 22.7 (MPa)^1/2.

For POP (9) glyceryl ether, the SP value is on record as 21.7 (MPa)^1/2. Take POP (10) glyceryl ether: the SP value is 21.4 (MPa)^1/2.

Regarding POP (16) glyceryl ether, the SP value was 20.2 (MPa)^1/2. Regarding “Pentacosaoxyethylene triacontaoxypropylene butyl ether”, the SP value is 18.8 (MPa)^1/2. For “Pentaoxyethylene pentaoxypropylene butyl ether”, the SP value is listed as 18.8 (MPa)^1/2.
